The structures appear in SMILES notation.

The results in this text go back to patent publication US20230381349A1, “METHODS AND COMPOSITIONS FOR IMAGING AND TREATING CANCER” (WASHINGTON UNIVERSITY, priority 2020, published 2023).

The subject of assay [1] is KI tumor. The assay can be described thus: Treatment efficacy in KI xenograft model. In kind it is in vivo, mouse. To be noted: for median survival: KI mice. The protocol:
A KI xenograft model was used to monitor tumor growth trends and treatment efficacy of CuNPs-ECL1i-Gem. 10 days after tumor implantation, mice were randomized into 5 groups (n=5/group): (1) CuNPs-ECL1i-Gem (Cu mass: 10 mg/kg body weight, Gem: 3.4±0.8 mg/kg body weight, I.V. injection, twice per week); (2) CuNPs-ECL1i (same CuNPs-NT dose as (1), I.V. injection, twice per week); (3) gemcitabine 7 mg/kg body weight (I.V. injection, twice per week); (4) gemcitabine 100 mg/kg body weight (I. P. injection, once per week); (5) saline (100 μL, I.V. injection, twice per week). For the 2nd treatment study, the mice started dose administration at 7 days post implantation. The dose regimens of CuNPs-NT-Gem and CuNPs-ECL1i-Gem were the same as the 1st treatment study. The Cu mass was limited to a dosage of 10 mg/kg for all nanoparticle groups, and the relative loaded gemcitabine dose was 3.4±0.8 mg/kg body weight. […] Tumor volume was calculated as (length×width2)/2. The treatment was continued for 6 successive weeks or until the mice died or were sacrificed and deemed as dead when their tumor volume reached over 2000 mm^3. After treatment, the tumors were collected for H&E staining.

In assay [2] the test system is KI cells. The assay can be described thus: In vitro cytotoxicity (WST-1 cell viability) assay. It is filed as cell-based. The note with it: Mus musculus, 72 h, 3 days continuous drug treatment. The protocol: All cells were cultured at 37° C., 5% C02, and 95% humidity.
The KI Cells were seeded into 96-well plates at a density of 5000 cells per well. 24 hrs later, the medium was replaced by fresh medium containing TA-PEG-Gem and Gem at the indicated concentration (range, 0-500 μM), respectively. All experimental incubation conditions were performed at least in triplicate. Cell viability was determined after 3 days of continuous drug treatment using the WST-1 cell cytotoxicity assay (Roche, Basel, Switzerland) following the manufacturer's instruction. Briefly, 10 μl WST-1 reagent was added in each well followed by additional incubation for 4 h. The absorbance at 440 nm was measured using a microplate reader. IC50 was calculated using GraphPad Prism 7.03 software (GraphPad Software, San Diego, CA).
Background: Tetrazolium assays rely on reduction of a dye to a coloured formazan, in cell work by metabolically active cells.

Broadly, the IC50 is the midpoint of a concentration-inhibition curve. Higher therefore signals weaker potency in that assay. Take `Nc1ccn([C@@H]2O[C@H](CO)[C@@H](O)C2(F)F)c(=O)n1` [Gem, gemcitabine]: the median survival in assay [1] (start day 10, high dose 100 mg/kg I.P. once per week) is given as 26 days; in assay [1] (start day 10, low dose 7 mg/kg I.V. twice per week), 25 days. Further, the “tumor growth effect compared to saline” value in assay [1] (start day 10, high dose 100 mg/kg I.P.) is on record as “did not show any treatment benefit”; in assay [1] (start day 10, low dose 7 mg/kg I.V.), “did not show any treatment benefit”. In assay [2], this compound showed an IC50 of 19.7 µM.
